Like-named read-outs stand apart in the source and are kept apart here.

For one test, the system named is GABAA receptor. Put plainly: GABAA receptor mediated chloride currents evoked on cultured neurones. The format is cell-based.
The test system of test [1] is K-ATP channels in DA neurones. As to the kind of experiment: K-ATP channel mediated response of DA neurones to mitochondrial inhibitors. To be noted: read-out: EC50 of K-ATP channel sensitivity. The format is cell-based, mouse.
For test [2], the system named is Ih channels in DA SN neurones. As to the kind of experiment: Pacemaker frequency of DA SN neurones under selective Ih inhibition. To be noted: 30 μM ZD7288. The format is cell-based.
Test [3] deals with SK mediated AHP currents (I-AHP) in dopaminergic neurons. Put plainly: cells. The format is cell-based, mouse. To be noted: for IC50: read-out: IC50 of I-AHP inhibition (Hill function).
A further test concerns globus pallidus neurones. Put plainly: Electrical activity of globus pallidus neurones in brain slices. The format is cell-based, mouse.
Test [4] relates to T-type calcium channels (low voltage-activated calcium currents). The format is cell-based, mouse. The conditions noted are these: read-out: IC50 of I-LVA inhibition (Hill function).
Test [5] concerns dopaminergic neurons. The format is cell-based, mouse.
Test [6] concerns dopaminergic midbrain neurons. The format is cell-based, mouse.
The subject of test [7] is dopaminergic neurons.

On to `[H]/N=C(/N)NCC(=O)O` [GAA, guanidinoacetate], for which the EC50 (in general, the concentration needed to bring the measured effect to its halfway point) in the test with GABAA receptor was 164 µM.
`C[n+]1ccc(-c2ccccc2)cc1` [MPP^+]: in [1] (MPP+), the EC50 is around 2 µM.
On to `CCN(c1ccccc1)c1cc(=NC)n(C)c(C)n1.Cl` [ZD7288], for which the “decrease of pacemaker frequency” value in test [2] is “about 50%”.
In the case of `[Co+2]` [cobalt], in test [3] (1 mM cobalt, n=29), the “I-AHP residual current (cobalt block)” value is 29±4%.
As to `CN(CC(=O)O)C(=N)N` [creatine], the “effect on neuronal activity” value in the test with globus pallidus neurones (millimolar concentrations) is reported as “no effect”.
Take `COCC(=O)O[C@]1(CCN(C)CCCc2nc3ccccc3[nH]2)CCc2cc(F)ccc2[C@@H]1C(C)C` [mibefradil, Mibefradil]: the IC50 (as a rule, the concentration that inhibits the measured activity by half) came out at 4.6 µM in [4] (depolarizations to −50 mV from holding potential −100 mV) and 5.9 µM in [3] (Mus musculus, Neuron, mean dose-response, recording potential −60 mV). Moreover, the “inhibition of cobalt-sensitive I-AHP” value in test [3] (mibefradil, concentration not given, normalized to mean value of cobalt block, n=6) turned out to be 94±10%.
For `[Ni+2]` [nickel], in the test with dopaminergic neurons [5], the “coefficient of variation (CV) of interspike intervals, representative recording” value is given as 38% and the “mean CV of interspike intervals” value is 27±5%. For the same compound, the “bursting value (action potentials in bursts / total)” value in test [6] is on record as 12±6%. Moreover, the IC50 in [4] came out at 33.9 µM. Moreover, the “fold reduction of AHPs with successive action potentials (cumulative inactivation)” value with dopaminergic neurons [7] is reported as 1.1±0.1. Besides, in test [3], the “inhibition of cobalt-sensitive I-AHP” value was 85±9% and the IC50 turned out to be 33.8 µM.
`C=C(C)[C@H]1Cc2c(ccc3c2O[C@@H]2COc4cc(OC)c(OC)cc4[C@@H]2C3=O)O1` [rotenone]: in [1] (rotenone), the EC50 is around 0.015 µM.
For the compound picrotoxin, the “effect on GAA-induced effects” value with globus pallidus neurones (GABAA receptor antagonists) is recorded as “blocked”.

Source of the values: patent publication US20030087799A1, “Modulation” (priority 2001, published 2003).
